Experiments:
CLP mice = assay: Plasma cytokine levels in CLP mice (Bio-Plex multiplex assay); assay type: in vivo; details: for plasma IL-6 levels: CLP mice, 6 hours post intervention, versus untreated, FIG. 5C; for levels of IL-1b over time / levels of MCP-1 over time / levels of TNF-α over time: individual CLP mice, 6 hours versus 48 hours post treatment
Protocol: (§1) The CLP study with 7-9 week old C57BL/6 or BALB/c males was conducted, at animal house facility at TheraIndx Lifesciences Pvt. Ltd. (Bangalore, India) and Institute of Life Sciences (Bhubaneswar, India) respectively, in accordance with ethical practices laid down in the CPCSEA guidelines for animal care and use (CPCSEA, 2003). The Institutional Animals Ethics Committee (IAEC) of the test facility approved the studies. The CLP was performed as described before (Rittirsch et al., 2009; Toscano et al., 2011). Sham control mice had undergone surgery with ceacal manipulations without ligation and puncture. About 500 μl saline was administered subcutaneously immediately after surgery. Tramadol (about 20 mg/kg) was injected subcutaneously for post-operative analgesia. BALB/c mice were injected with single IP close of about 500 μg GA132 (GA is the internal code which has been used by the inventors of the present invention) while C57BL/6 mice received single IP dose of about 300 μg or about 700 μg GA132 6 hours post CLP. A separate group of C57BL/6 mice received single IP dose of about 250 μg of 6-mer, 7-mer or 8-mer at either 6 hour or 24 hour post CLP. All groups except the CLP alone (control) received a single dose of standard antibiotics (amoxicillin and clavulanate) 6 hour post CLP. Control group was injected with saline solution. Total of 92 C57BL/6 and 18 BALB/c mice were used in the study.
The Mutiplex immunoassay for Human and Mouse IL-1b, IL-6, IL-10, TNF-α and MCP-1 were purchased from Bio-Rad. For human cytokines, 1×10^6 PBMCs were seeded in 24 well plate a day before and treated with 100 ng/ml LPS or 50 μg/ml GA132 for 24 hours. The culture supernatant from three independent biological replicates was collected and used for the assay without dilution. For mice cytokines, the plasma samples from mice were collected 6 or 48 hours post treatment and diluted in PBS (Phosphate Buffered Saline) in 1:2 before assay. The assay was performed as per manufacturers' method and the beads were read and analyzed in Bio-Plex® MAGRIX™ Multiplex Reader (Bio-Rad) (https://www.bio-rad.com/webroot/web/pdg/lsr/literature/10014905.pdf).

[1] = tested on: CLP model of sepsis in mice; assay: CLP study, survival of mice treated with chito-oligomers; assay type: in vivo; details: C57BL/6 CLP mice; for protection over 'Antibiotic-alone' group: intervention at 6 hours, 7 days; for survival compared to 'Antibiotic alone' group: single dose at 24 hours post-surgery; for survival over 7 days: intervention at 6 hours post-surgery, about 250 μg single IP dose with antibiotics, FIG. 5A
Protocol: as §1, with “Sham control mice had undergone surgery with ceacal manipulations without ligation and puncture.” left out, “BALB/c mice were injected with single IP close of about 500 μg GA132 (GA is the internal code which has been used by the inventors of the present invention) while C57BL/6 mice received single IP dose of about 300 μg or about 700 μg GA132 6 hours post CLP.” left out
Experimental data were analyzed using GraphPad Prism 8 (GraphPad Software, Inc.). Kruskal-Wallis test and one way ANOVA test was used for analysis of cytokines and reporter assay values. Log-rank (Mantel-Cox) test was utilized for survival analysis. P-values, P<0.05 were considered statistically significant and are denoted by […] if calculated P-values were lower than P=0.05.

Compound	plasma IL-6 levels (CLP mice)	levels of IL-1b over time (CLP mice)	levels of MCP-1 over time (CLP mice)	levels of TNF-α over time (CLP mice)	protection over 'Antibiotic-alone' group [1]	survival compared to 'Antibiotic alone' group [1]	survival over 7 days [1]
CC(=O)N[C@H]1[C@H](O[C@H]2[C@H](O)[C@@H](NC(C)=O)[C@H](O[C@H]3[C@H](O)[C@@H](NC(C)=O)C(O)O[C@@H]3CO)O[C@@H]2CO)O[C@H](CO)[C@@H](O[C@@H]2O[C@H](CO)[C@@H](O[C@@H]3O[C@H](CO)[C@@H](O[C@@H]4O[C@H](CO)[C@@H](O)[C@H](O)[C@H]4NC(C)=O)[C@H](O)[C@H]3NC(C)=O)[C@H](O)[C@H]2NC(C)=O)[C@@H]1O (some centres unmarked) [6-mer, Hexa-N-acetyl Chitohexaose]	significant decrease	no effect	no effect	no effect	no additional protection	no change	–
CC(=O)N[C@H]1[C@H](O[C@H]2[C@H](O)[C@@H](NC(C)=O)[C@H](O[C@H]3[C@H](O)[C@@H](NC(C)=O)[C@H](O[C@H]4[C@H](O)[C@@H](NC(C)=O)C(O)O[C@@H]4CO)O[C@@H]3CO)O[C@@H]2CO)O[C@H](CO)[C@@H](O[C@@H]2O[C@H](CO)[C@@H](O[C@@H]3O[C@H](CO)[C@@H](O[C@@H]4O[C@H](CO)[C@@H](O[C@@H]5O[C@H](CO)[C@@H](O)[C@H](O)[C@H]5NC(C)=O)[C@H](O)[C@H]4NC(C)=O)[C@H](O)[C@H]3NC(C)=O)[C@H](O)[C@H]2NC(C)=O)[C@@H]1O (some centres unmarked) [8-mer, Octa-N-acetyl Chitooctaose]	reduced in 8-mer treated mice when compare to untreated mice but the difference was not found to be significant	increase	increase	increase	no additional protection	no change	40%
amoxicillin and clavulanate [Antibiotic—alone, reference compound]	–	–	–	–	–	–	60%
